Read-outs that look alike come from different tables or passages of the source.
Assays:
Format in all cases: in vivo
[1] = system: adult Rhipicephalus sanguineus ticks; test: whole plant or invertebrate; conditions: Rhipicephalus sanguineus
Excerpt: Dosages were serially diluted using this same formulation.

[2] = system: Ctenocephalides felis fleas; test: Study C: flea efficacy of Compound 1 and fipronil alone and with amitraz in dogs
Procedure: (§1) The effectiveness of Compound 1 alone, fipronil alone, Compound 1 in combination with amitraz, or fipronil in combination with amitraz, when administered once as topical solutions to dogs against induced infestations of Rhipicephalus sanguineus and Ctenocephalides felis were determined in a third clinical study. Thirty-six beagles (18 males and 18 females) were selected for the study. Six replicates of 6 animals each were formed. Treatment Group 1 dogs were treated with a placebo. Treatment Groups 2, 3, 4, 5 and 6 received their respective treatments as a topical spot-on application once on Day 0. Each formulation included diethyleneglycol monoethyl ether (transcutol) as carrier. The Treatment Groups were: Treatment Group 2: fipronil at 0.1 mL/kg body weight (10 mg/kg); Treatment Group 3: Compound 1 at 0.1 mL/kg (10 mg/kg) body weight; Treatment Group 4: Compound 1 at 0.2 mL/kg (20 mg/kg) body weight; Treatment Group 5: Compound 1 at 0.1 mL/kg (10 mg/kg) body weight plus amitraz at 0.04 mL/kg (8 mg/kg) body weight; Treatment Group 6: fipronil at 0.1 mL/kg (10 mg/kg) body weight plus amitraz at 0.04 mL/kg (8 mg/kg) body weight. Treatment was applied by parting the hair and applying the formulation(s) directly onto the skin on one spot at the midline of the neck, except for Groups 4, 5 and 6 which were applied in approximately equal volumes on two spots, one spot between the base of the skull and the shoulder blades and the other at the front of the shoulder blades.
(§2) All dogs were infested with approximately 50 Rhipicephalus sanguineus ticks on Days −1, 7, 14, 21, 28, 35, 42, 49 and 56. Dogs were also infested with approximately 100 Ctenocephalides felis fleas on Days −1, 8, 15, 22, 29, 36, 43, 50 and 57. Ectoparasites were removed and counted on Day 2, approximately 48 hours after treatment and on Days 9, 16, 23, 30, 37, 44, 51 and 58 approximately 24 hours after flea infestation and 48 hours after tick infestation. Tables 8 and 9 below show the % efficacy of formulations comprising fipronil at 0.1 ml/kg of body weight, Compound 1 at […], and fipronil and Compound 1 both at […] in combination with amitraz at 0.04 ml/kg of body weight compared to control group without active compounds. The percent reduction in flea counts of the treated groups with respect to the Control group over the study is shown in FIG. 14.

[3] = system: Rhipicephalus sanguineus ticks; test: Study C: tick efficacy of Compound 1 and fipronil alone and with amitraz in dogs
Procedure: as §1
as §2, with “Ectoparasites were removed and counted on Day 2, approximately 48 hours after treatment and on Days 9, 16, 23, 30, 37, 44, 51 and 58 approximately 24 hours after flea infestation and 48 hours after tick infestation.” left out

[4] = 6 h, read-out: 6 hour % Mortality Rep 1
[5] = 6 h, read-out: 6 hour % Mortality Rep 2
[6] = 6 h, read-out: 6 hour Avg. % Mortality
[7] = 24 h, read-out: 24 hour % Mortality Rep 1
[8] = 24 h, read-out: 24 hour % Mortality Rep 2
[9] = 24 h, read-out: 24 hour Avg. % Mortality
[10] = 48 h, read-out: 48 hour % Mortality Rep 1
[11] = 48 h, read-out: 48 hour % Mortality Rep 2
[12] = 48 h, read-out: 48 hour Avg. % Mortality

Cc1ccc(/N=C/N(C)/C=N/c2ccc(C)cc2C)c(C)c1 [Amitraz, amitraz]
mortality at 6.25 ppm [1, 4]: 0% | mortality at 12.5 ppm [1, 4]: 0% | mortality at 25 ppm [1, 4]: 0% | mortality at 6.25 ppm [1, 5]: 0% | mortality at 12.5 ppm [1, 5]: 0% | mortality at 25 ppm [1, 5]: 0% | mortality at 6.25 ppm [1, 6]: 0% | mortality at 12.5 ppm [1, 6]: 0% | mortality at 25 ppm [1, 6]: 0% | mortality at 6.25 ppm [1, 7]: 0% | mortality at 12.5 ppm [1, 7]: 0% | mortality at 25 ppm [1, 7]: 0% | mortality at 6.25 ppm [1, 8]: 0% | mortality at 12.5 ppm [1, 8]: 0% | mortality at 25 ppm [1, 8]: 0% | mortality at 6.25 ppm [1, 9]: 0% | mortality at 12.5 ppm [1, 9]: 0% | mortality at 25 ppm [1, 9]: 0% | mortality at 6.25 ppm [1, 10]: 0% | mortality at 12.5 ppm [1, 10]: 0% | mortality at 25 ppm [1, 10]: 10% | mortality at 6.25 ppm [1, 11]: 0% | mortality at 12.5 ppm [1, 11]: 0% | mortality at 25 ppm [1, 11]: 10% | mortality at 6.25 ppm [1, 12]: 0% | mortality at 12.5 ppm [1, 12]: 0% | mortality at 25 ppm [1, 12]: 10%

Cc1c([S+]([O-])C(F)(Cl)Cl)c(C#N)nn1-c1c(F)cc(C(F)(F)F)cc1Cl (stereo not drawn) [Compound 1, 3-cyano-1-(2-chloro-6-fluoro-4-trifluoromethylphenyl)-4-dichlorofluoromethylsulfinyl-5-methyl-1H-pyrazole]
% Efficacy against fleas ([2]; Day 2, 10 mg/kg): 100% | % Efficacy against fleas ([2]; Day 2, 20 mg/kg): 100% | % Efficacy against fleas ([2]; Day 9, 10 mg/kg): 100% | % Efficacy against fleas ([2]; Day 9, 20 mg/kg): 100% | % Efficacy against fleas ([2]; Day 16, 10 mg/kg): 100% | % Efficacy against fleas ([2]; Day 16, 20 mg/kg): 100% | % Efficacy against fleas ([2]; Day 23, 10 mg/kg): 100% | % Efficacy against fleas ([2]; Day 23, 20 mg/kg): 100% | % Efficacy against fleas ([2]; Day 30, 10 mg/kg): 99.8% | % Efficacy against fleas ([2]; Day 30, 20 mg/kg): 100% | % Efficacy against fleas ([2]; Day 37, 10 mg/kg): 99.4% | % Efficacy against fleas ([2]; Day 37, 20 mg/kg): 100% | % Efficacy against fleas ([2]; Day 44, 10 mg/kg): 98.6% | % Efficacy against fleas ([2]; Day 44, 20 mg/kg): 100% | % Efficacy against fleas ([2]; Day 51, 10 mg/kg): 98.5% | % Efficacy against fleas ([2]; Day 51, 20 mg/kg): 99.8% | % Efficacy against fleas ([2]; Day 58, 10 mg/kg): 94.6% | % Efficacy against fleas ([2]; Day 58, 20 mg/kg): 100% | % Efficacy (Tick Efficacy) ([3]; Day 1, 10 mg/kg): 88.1% | % Efficacy (Tick Efficacy) ([3]; Day 1, 20 mg/kg): 98.6% | % Efficacy (Tick Efficacy) ([3]; Day 2, 10 mg/kg): 96.8% | % Efficacy (Tick Efficacy) ([3]; Day 2, 20 mg/kg): 98.9% | % Efficacy (Tick Efficacy) ([3]; Day 8, 10 mg/kg): 93.5% | % Efficacy (Tick Efficacy) ([3]; Day 8, 20 mg/kg): 98.6% | % Efficacy (Tick Efficacy) ([3]; Day 9, 10 mg/kg): 97.7% | % Efficacy (Tick Efficacy) ([3]; Day 9, 20 mg/kg): 100% | % Efficacy (Tick Efficacy) ([3]; Day 15, 10 mg/kg): 98.5% | % Efficacy (Tick Efficacy) ([3]; Day 15, 20 mg/kg): 99.3% | % Efficacy (Tick Efficacy) ([3]; Day 16, 10 mg/kg): 100% | % Efficacy (Tick Efficacy) ([3]; Day 16, 20 mg/kg): 100% | % Efficacy (Tick Efficacy) ([3]; Day 23, 10 mg/kg): 98.4% | % Efficacy (Tick Efficacy) ([3]; Day 23, 20 mg/kg): 100% | % Efficacy (Tick Efficacy) ([3]; Day 30, 10 mg/kg): 99% | % Efficacy (Tick Efficacy) ([3]; Day 30, 20 mg/kg): 99.5% | % Efficacy (Tick Efficacy) ([3]; Day 37, 10 mg/kg): 94.3% | % Efficacy (Tick Efficacy) ([3]; Day 37, 20 mg/kg): 98.6% | % Efficacy (Tick Efficacy) ([3]; Day 44, 10 mg/kg): 92.4% | % Efficacy (Tick Efficacy) ([3]; Day 44, 20 mg/kg): 92.3% | % Efficacy (Tick Efficacy) ([3]; Day 51, 10 mg/kg): 84.7% | % Efficacy (Tick Efficacy) ([3]; Day 51, 20 mg/kg): 86.5% | % Efficacy (Tick Efficacy) ([3]; Day 58, 10 mg/kg): 83.1% | % Efficacy (Tick Efficacy) ([3]; Day 58, 20 mg/kg): 87.4%

Source: patent US8450357B2, “Compositions comprising an aryl pyrazole and/or a formamidine, methods and uses thereof” (Merial Limited, priority 2008, dated 2013)
